“Also recorded” adds a separate entry of the source. Blank lines part the entries; values can stand above or below the molecule they belong to. Square brackets hold non-standard residues; d marks the D form. Peptide text beside a SMILES is read from it. * marks the point of attachment. Sta = CC(C)C[C@H](N)[C@@H](O)CC(=O)O; Isovaleryl = CC(C)CC(=O)*
How the values were obtained:
C. albicans whole cells = assay: Degradation assay of Hst-5 with C. albicans whole cells; design: species or system Candida albicans
Method: (§1) The C. albicans SC5314 strain, the C. albicans SAP null mutants sap1–3 triple mutant (lacking SAP1–3), sap4–6 triple mutant (lacking SAP4–6), sap9 single mutant (lacking SAP9), sap10 single mutant (lacking SAP10) and sap9,10 double mutant (lacking both SAP9 and SAP10), as well as the parent strain CAI4 (URA-) were used in these experiments, [43], [44]. Strains were grown in YPD broth (Difco Laboratories, Detroit, MI) overnight at 30°C with shaking and cells were equilibrated in fresh media to an optical density of 1.0 at OD600. High purity Hst-5, proteinase K, PMSF and pepstatin A were purchased from Sigma (Sigma-Aldrich Chemical, St. Louis, MO). Histatin-5 was reconstituted in 1 mM phosphate-buffered saline (PBS) and used at a final concentration of 150 µg/ml (within the range of physiological salivary concentration) in all experiments unless otherwise stated. All experiments were performed on at least three separate occasions.
The intensity of the bands on the Coomassie-stained gels was assessed by densitometric analysis using a MultiImager scanner (Bio-Rad Laboratories, Hercules California) and images analyzed with the PDQuest version 7.0 (BioRAd).

[1] = system: cell-free supernatants of C. albicans cell suspensions; assay: Degradation assay of Hst-5 with cell-free supernatants; design: species or system Candida albicans; settings: C. albicans supernatant compared to whole C. albicans cells; SDS-PAGE (Figure 3C)
Method: Degradation assays were performed by incubating Hst-5 with 100 µl of standardized cell concentrations of the C. albicans strains in PBS for 2 h at 37°C. Unless otherwise stated, C. albicans strains were used in experiments at a cell concentration of 2×10^8 cells/ml (generating two visible bands). Protease K was used as a positive control and negative controls with peptide and no C. albicans were included. Following incubation, samples were collected, heated at 100°C to remove proteolytic activity and analyzed by sodium dodecyl sulfate polyacrylamide gel electrophoresis (SDS-PAGE). Experiments were also performed using increasing C. albicans cell densities and at different time points where samples were collected following 20, 60 and 120 minutes incubation. In addition, assays were performed using cell-free supernatants from C. albicans cell suspensions to determine whether the proteolytic substance is secreted.

Sap9 [2] = target: T1, Sap9 (Candida albicans, UniProt Q59SU1); settings: MALDI-TOF/TOF MS peptide mapping
T1 sequence (Q59SU1 18-520): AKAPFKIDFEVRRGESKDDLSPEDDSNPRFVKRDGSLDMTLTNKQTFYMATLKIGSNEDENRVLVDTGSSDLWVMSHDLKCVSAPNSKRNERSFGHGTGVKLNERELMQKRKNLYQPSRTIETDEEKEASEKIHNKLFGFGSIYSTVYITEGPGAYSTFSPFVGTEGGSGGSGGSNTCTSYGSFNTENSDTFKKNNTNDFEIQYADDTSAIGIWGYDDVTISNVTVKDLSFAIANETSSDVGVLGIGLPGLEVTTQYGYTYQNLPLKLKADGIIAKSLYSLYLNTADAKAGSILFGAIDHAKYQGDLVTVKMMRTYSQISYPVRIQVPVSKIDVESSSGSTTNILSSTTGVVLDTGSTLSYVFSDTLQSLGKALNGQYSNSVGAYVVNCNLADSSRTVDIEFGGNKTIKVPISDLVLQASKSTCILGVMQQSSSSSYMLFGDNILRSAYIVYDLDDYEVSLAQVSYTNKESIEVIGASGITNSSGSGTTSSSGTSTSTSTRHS
Excerpt: The recombinant proteases Sap9 and Sap10 were produced in Pichia pastoris as described previously, [45]. Briefly, P. pastoris strain GS115 was transformed with the expression plasmid pKJ113 carrying truncated SAP9 and SAP10 versions lacking signal peptide- and GPI anchor consensus- encoding sequences. Proteases were recovered from culture supernatants and purified via anion exchange chromatography. Activity of proteases was verified by using a standard fluorescence casein based assay (Molecular Probes). Purified proteases (0.05, 0.1, 0.25 and 0.5 µg) were incubated with Hst-5 for 2 h. Following, samples were processed as described above.
Supernatants from the various degradation reactions were subjected to peptide mapping in order to determine the sequences of cleaved fragments, identify cleavage sites on the Hst-5 as well as other cleavage products that may not be visible by electrophoresis. […] Peptide samples were mixed with saturated α-cyano-4-hydroxycinnamic acid in acetonitrile∶trifluoroacetic acid 0.1% (1∶2 v/v) then measured on an Ultraflex MALDI-ToF/ToF device using flexControl 3.0 for data collection and flexAnalysis 3.0 for spectra analysis and peaklist generation (Bruker Daltonics GmbH, Germany). […]

[3] = system: C. albicans SAP null mutants; design: species or system Candida albicans; settings: sap10 single mutant compared to parent strain CAI4 and SC5314 (Figure 4)
Method: as §1

Saccharomyces cerevisiae = assay: Degradation of Hst-5 by Saccharomyces cerevisiae; settings: compared to C. albicans (Figure S2)
Sap5 [4] = target: Sap5 (Candida albicans, UniProt P43094); settings: data not shown
Sequence of Sap5 (Candida albicans, UniProt P43094) (P43094 77-418): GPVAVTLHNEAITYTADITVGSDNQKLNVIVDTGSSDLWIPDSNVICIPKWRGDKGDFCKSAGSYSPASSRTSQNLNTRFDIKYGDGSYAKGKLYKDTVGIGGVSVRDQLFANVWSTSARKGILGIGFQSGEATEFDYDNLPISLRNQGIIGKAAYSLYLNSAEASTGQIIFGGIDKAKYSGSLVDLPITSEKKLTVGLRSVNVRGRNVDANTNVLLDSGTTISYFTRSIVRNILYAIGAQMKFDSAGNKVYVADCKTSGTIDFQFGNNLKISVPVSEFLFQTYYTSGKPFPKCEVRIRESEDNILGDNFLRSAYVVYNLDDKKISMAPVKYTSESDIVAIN

C. albicans cells = assay: Inhibition of C. albicans degradation of Hst-5 by protease inhibitors; assay type: cell-based, Candida albicans; settings: 1 mM inhibitor in the degradation assay; SDS-PAGE (Figure 3B)
proteinase K = proteinase K (Parengyodontium album, UniProt P06873); assay: Inhibition of proteinase K degradation of Hst-5 by protease inhibitors; assay type: biochemical; design: purchased Sigma (Sigma-Aldrich Chemical, St. Louis, MO); settings: 1 mM inhibitor; SDS-PAGE (Figure 3A)
Sequence of proteinase K (P06873 106-384): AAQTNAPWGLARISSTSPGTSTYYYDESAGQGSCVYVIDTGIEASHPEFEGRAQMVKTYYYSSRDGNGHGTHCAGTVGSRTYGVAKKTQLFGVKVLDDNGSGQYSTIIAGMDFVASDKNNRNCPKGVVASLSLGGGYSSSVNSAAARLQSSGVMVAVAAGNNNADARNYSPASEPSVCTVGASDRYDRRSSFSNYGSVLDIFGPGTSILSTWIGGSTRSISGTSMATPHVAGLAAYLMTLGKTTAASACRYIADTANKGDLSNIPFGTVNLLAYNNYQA

Sap9 [5] = target: T1, Sap9; assay: Inhibition of Sap9 degradation of Hst-5; assay type: biochemical; design: made in house; host or cells: Pichia pastoris GS115 (plasmid pKJ113); settings: purified Sap9 protease; SDS-PAGE (Figure 3D)
Excerpt: (§2) Following, samples were processed as described above.

Sap10 = Sap10 (Candida albicans, UniProt Q5A651); assay: Inhibition of Sap10 degradation of Hst-5; assay type: biochemical; design: made in house; host or cells: Pichia pastoris GS115 (plasmid pKJ113); settings: purified Sap10 protease; SDS-PAGE (Figure 3D)
Sequence of Sap10 (Q5A651 21-429): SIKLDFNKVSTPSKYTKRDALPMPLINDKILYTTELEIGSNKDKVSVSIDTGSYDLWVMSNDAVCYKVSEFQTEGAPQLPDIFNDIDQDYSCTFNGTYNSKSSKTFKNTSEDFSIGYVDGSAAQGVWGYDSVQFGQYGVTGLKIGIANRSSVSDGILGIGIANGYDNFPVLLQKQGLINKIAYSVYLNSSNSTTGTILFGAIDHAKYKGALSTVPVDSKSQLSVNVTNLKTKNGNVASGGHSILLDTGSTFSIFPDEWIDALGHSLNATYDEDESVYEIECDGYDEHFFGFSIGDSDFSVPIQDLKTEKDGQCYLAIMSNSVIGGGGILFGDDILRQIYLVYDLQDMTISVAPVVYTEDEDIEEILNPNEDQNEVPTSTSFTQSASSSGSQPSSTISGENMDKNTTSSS
Excerpt: as §2

Sap5 [6] = assay: Sap5 protease; settings: C. albicans, up to 2 h
Sap9 [7] = assay: purified recombinant Sap9 protease; settings: C. albicans, up to 2 h
[8] = C. albicans cells in PBS with pepstatin A; settings: 37°C, up to 2 h
[9] = C. albicans whole cells (2×10^8 cells/ml) in PBS; settings: Candida albicans, 37°C, up to 2 h
[10] = C. albicans whole cells (SC5314) in PBS, 2×10^8 cells/ml; settings: 37°C, up to 2 h

Molecule: C[C@H](NC(=O)[C@H](Cc1cnc[nH]1)NC(=O)[C@H](CO)NC(=O)[C@@H](N)CC(=O)O)C(=O)N[C@@H](CCCCN)C(=O)N[C@@H](CCCNC(=N)N)C(=O)N[C@@H](Cc1cnc[nH]1)C(=O)N[C@@H](Cc1cnc[nH]1)C(=O)NCC(=O)N[C@@H](Cc1ccc(O)cc1)C(=O)N[C@@H](CCCCN)C(=O)N[C@@H](CCCNC(=N)N)C(=O)N[C@@H](CCCCN)C(=O)N[C@@H](Cc1ccccc1)C(=O)N[C@@H](Cc1cnc[nH]1)C(=O)N[C@@H](CCC(=O)O)C(=O)N[C@@H](CCCCN)C(=O)N[C@@H](Cc1cnc[nH]1)C(=O)N[C@@H](Cc1cnc[nH]1)C(=O)N[C@@H](CO)C(=O)N[C@@H](Cc1cnc[nH]1)C(=O)N[C@@H](CCCNC(=N)N)C(=O)NCC(=O)N[C@@H](Cc1ccc(O)cc1)C(=O)O [Hst-5, Histatin-5]
degradation of Hst-5 by C. albicans (C. albicans whole cells; 1×10^2 cells/ml and below, physiological concentrations of Hst-5): unable to degrade
degradation of Hst-5 by C. albicans (C. albicans whole cells; 1×10^6 cells/ml, 2 h 37°C, SDS-PAGE): no degradation
degradation of Hst-5 by C. albicans (C. albicans whole cells; 2×10^9 cells/ml, 2 h 37°C, SDS-PAGE): significant degradation
degradation of Hst-5 by C. albicans over time (C. albicans whole cells; 20 mins incubation at 37°C, SDS-PAGE, lower weight product): Minor degradation
degradation of Hst-5 by C. albicans over time (C. albicans whole cells; 1 h and 2 h incubation at 37°C, SDS-PAGE): significantly increasing level of degradation
time in which C. albicans degrades Hst-5 (C. albicans whole cells; C. albicans cells, 37°C, PBS, SDS-PAGE (Figure 2A)): ≤ 20 min
degradation of Hst-5 by C. albicans cells (C. albicans whole cells; Hst-5 150 µg/ml in PBS with 100 µl C. albicans cells (2×10^8 cells/ml unless stated), 2 h 37°C, SDS-PAGE, densitometry, at least three occasions): efficiently and rapidly degrade
level of degradation versus Hst-5 concentration (C. albicans whole cells; Hst-5 50–200 µg/ml, data not shown): inversely proportional to Hst-5 concentration
degradation of Hst-5 by cell-free supernatants [1]: significantly less degradation; also recorded: Minimal degradation
cleavage site of Sap9 on Hst-5 (Sap9 [2]): Lys13
degradation of Hst-5 by sap10 mutant [3]: some degree of inhibition
degradation of Hst-5 by C. glabrata (Candida glabrata): significant enhanced degradation
degradation of Hst-5 by S. cerevisiae (Saccharomyces cerevisiae): significant enhanced degradation
degradation of Hst-5 by Sap5 purified protease (Sap5 [4]): did not degrade

Molecule: O=S(=O)(F)Cc1ccccc1 [PMSF]
inhibition of C. albicans degradation of Hst-5 (C. albicans cells): not and failed to inhibit
inhibition of proteinase K degradation of Hst-5 (proteinase K): inhibition of degradation; also recorded: inhibited

Molecule: CC(C)CC(=O)N[C@H](C(=O)N[C@H](C(=O)N[C@@H](CC(C)C)[C@@H](O)CC(=O)N[C@@H](C)C(=O)N[C@@H](CC(C)C)[C@@H](O)CC(=O)O)C(C)C)C(C)C [pepstatin A] (Isovaleryl-VV[Sta]A[Sta]-OH)
inhibition of C. albicans degradation of Hst-5 (C. albicans cells): inhibition of C. albicans degradation; also recorded: resulted in inhibition of degradation; also recorded: salvaged Hst-5 from degradation
inhibition of Sap9 degradation of Hst-5 (Sap9 [5]): inhibition of degradation; also recorded: inhibited
inhibition of Sap10 degradation of Hst-5 (Sap10): inhibition of degradation; also recorded: inhibited

not cleaved (Sap5 [6]): did not degrade Hst-5
cleaved bond (Sap9 [7]): R12-Lys13
not cleaved [8]: salvaged Hst-5 from degradation
cleaved bond [9]: K17-H18
cleaved bond [10]: R12-Lys13; also recorded: K17-H18
Molecule: DSHAKRHHGYKRKFHEKHHSHRGY
